Measured values taken from patent publication US20090018134A1, “Compounds - 945” (AstraZeneca AB, priority 2007, published 2009).

Molecular target: T1, mTOR (Homo sapiens, UniProt P42345)
T1 construct: FLAG; made in house
Assay: In Vitro mTOR Kinase Assay (Echo), Test (a)(ii)
Type: biochemical
Conditions: table of enzyme assay Test (a)(ii); read-out: Test (a)(ii) IC50
How it was run: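 FLAG-tagged truncated mTOR (residues 1362-2549), expressed in HEK293 and purified via the FLAG tag, phosphorylated a biotinylated peptide over 2 hours at room temperature. EDTA stopped the reaction. Phospho-T389 was detected overnight by AlphaScreen using the p70 S6K T389 antibody with Protein A/streptavidin beads; IC50 reported.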

T1 sequence (P42345 1362-2549): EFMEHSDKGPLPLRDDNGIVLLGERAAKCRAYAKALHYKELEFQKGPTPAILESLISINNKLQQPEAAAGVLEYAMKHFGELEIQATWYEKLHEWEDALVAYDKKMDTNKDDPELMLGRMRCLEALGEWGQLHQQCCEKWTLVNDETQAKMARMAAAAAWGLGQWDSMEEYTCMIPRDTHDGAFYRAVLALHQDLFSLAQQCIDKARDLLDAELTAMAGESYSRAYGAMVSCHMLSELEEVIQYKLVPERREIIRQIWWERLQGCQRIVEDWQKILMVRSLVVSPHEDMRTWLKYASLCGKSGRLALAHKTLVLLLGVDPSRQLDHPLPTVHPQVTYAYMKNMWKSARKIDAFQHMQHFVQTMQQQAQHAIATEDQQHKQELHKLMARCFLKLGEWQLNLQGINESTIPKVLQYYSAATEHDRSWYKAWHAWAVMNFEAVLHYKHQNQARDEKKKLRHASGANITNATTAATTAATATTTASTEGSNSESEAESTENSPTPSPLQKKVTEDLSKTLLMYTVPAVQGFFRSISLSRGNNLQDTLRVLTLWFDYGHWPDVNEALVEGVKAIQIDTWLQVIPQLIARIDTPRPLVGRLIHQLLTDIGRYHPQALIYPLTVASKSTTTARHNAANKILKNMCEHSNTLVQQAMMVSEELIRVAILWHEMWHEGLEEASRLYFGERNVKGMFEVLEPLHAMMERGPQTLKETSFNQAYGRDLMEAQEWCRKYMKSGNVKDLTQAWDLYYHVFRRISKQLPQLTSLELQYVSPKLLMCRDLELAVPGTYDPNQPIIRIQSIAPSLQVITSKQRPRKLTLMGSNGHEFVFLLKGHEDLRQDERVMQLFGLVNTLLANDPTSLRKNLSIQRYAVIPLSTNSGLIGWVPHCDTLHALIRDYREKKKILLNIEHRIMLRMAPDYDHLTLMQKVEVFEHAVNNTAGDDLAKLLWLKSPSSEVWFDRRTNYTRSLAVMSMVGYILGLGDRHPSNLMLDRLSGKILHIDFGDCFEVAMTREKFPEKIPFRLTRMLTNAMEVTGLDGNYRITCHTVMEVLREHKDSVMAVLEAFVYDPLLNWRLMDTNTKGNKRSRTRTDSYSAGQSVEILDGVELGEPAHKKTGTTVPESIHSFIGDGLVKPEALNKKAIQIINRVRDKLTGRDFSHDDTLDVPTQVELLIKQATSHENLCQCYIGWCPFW

Structure (SMILES) | IC50 [nM]
C[C@H]1COCCN1c1cc(C2(S(=O)(=O)c3nccs3)CCC2)nc(-c2ccc(NC(=O)NCCCO)cc2)n1 [Example 98j, 3-(3-hydroxypropyl)-1-[4-[4-[(3S)-3-methylmorpholin-4-yl]-6-[1-(1,3-thiazol-2-ylsulfonyl)cyclobutyl]pyrimidin-2-yl]phenyl]urea] | 3.74
C[C@H]1COCCN1c1cc(C2(S(=O)(=O)c3nccs3)CCC2)nc(-c2ccc(NC(=O)NCCO)cc2)n1 [Example 98k, 3-(2-hydroxyethyl)-1-[4-[4-[(3S)-3-methylmorpholin-4-yl]-6-[1-(1,3-thiazol-2-ylsulfonyl)cyclobutyl]pyrimidin-2-yl]phenyl]urea] | 2.46
C[C@H](CO)NC(=O)Nc1ccc(-c2nc(N3CCOC[C@@H]3C)cc(C3(S(=O)(=O)c4nccs4)CCC3)n2)cc1 [Example 98l, 3-[(2R)-1-hydroxypropan-2-yl]-1-[4-[4-[(3S)-3-methylmorpholin-4-yl]-6-[1-(1,3-thiazol-2-ylsulfonyl)cyclobutyl]pyrimidin-2-yl]phenyl]urea] | 7.89
CNC(=S)Nc1ccc(-c2nc(N3CCOC[C@@H]3C)cc(C3(S(=O)(=O)CCCO)CCC3)n2)cc1 [Example 99a, 1-[4-[4-[1-(3-hydroxypropylsulfonyl)cyclobutyl]-6-[(3S)-3-methylmorpholin-4-yl]pyrimidin-2-yl]phenyl]-3-methylthiourea] | 43.8
C[C@H]1COCCN1c1cc(C2(S(=O)(=O)CCCO)CCC2)nc(-c2ccc(NC(=S)NC3CC3)cc2)n1 [Example 99b, 3-cyclopropyl-1-[4-[4-[1-(3-hydroxypropylsulfonyl)cyclobutyl]-6-[(3S)-3-methylmorpholin-4-yl]pyrimidin-2-yl]phenyl]thiourea] | 31.6
C[C@H]1COCCN1c1cc(C2(S(=O)(=O)CCCO)CCC2)nc(-c2ccc(NC(=S)NCc3ncc[nH]3)cc2)n1 [Example 99c, 1-[4-[4-[1-(3-hydroxypropylsulfonyl)cyclobutyl]-6-[(3S)-3-methylmorpholin-4-yl]pyrimidin-2-yl]phenyl]-3-(1H-imidazol-2-ylmethyl)thiourea] | 239
C[C@H]1COCCN1c1cc(C2(S(=O)(=O)CCCO)CCC2)nc(-c2ccc(NC(=S)NC(C)(C)CO)cc2)n1 [Example 99d, 3-(1-hydroxy-2-methylpropan-2-yl)-1-[4-[4-[1-(3-hydroxypropylsulfonyl)cyclobutyl]-6-[(3S)-3-methylmorpholin-4-yl]pyrimidin-2-yl]phenyl]thiourea] | 219

Second part, the compound after the results:

IC50 [nM] | Structure (SMILES)
31.7 | CCNC(=S)Nc1ccc(-c2nc(N3CCOC[C@@H]3C)cc(C3(S(=O)(=O)CCCO)CCC3)n2)cc1 [Example 99e, 1-ethyl-3-[4-[4-[1-(3-hydroxypropylsulfonyl)cyclobutyl]-6-[(3S)-3-methylmorpholin-4-yl]pyrimidin-2-yl]phenyl]thiourea]
5.89 | C[C@H]1COCCN1c1cc(C2(S(=O)(=O)CCCO)CCC2)nc(-c2ccc(NC(=S)NCCO)cc2)n1 [Example 99f, 3-(2-hydroxyethyl)-1-[4-[4-[1-(3-hydroxypropylsulfonyl)cyclobutyl]-6-[(3S)-3-methylmorpholin-4-yl]pyrimidin-2-yl]phenyl]thiourea]
15.2 | C[C@H]1COCCN1c1cc(C2(S(=O)(=O)CCCO)CCC2)nc(-c2ccc(NC(=S)NCC(F)F)cc2)n1 [Example 99g, 3-(2,2-difluoroethyl)-1-[4-[4-[1-(3-hydroxypropylsulfonyl)cyclobutyl]-6-[(3S)-3-methylmorpholin-4-yl]pyrimidin-2-yl]phenyl]thiourea]
78.2 | CCCNC(=S)Nc1ccc(-c2nc(N3CCOC[C@@H]3C)cc(C3(S(=O)(=O)CCCO)CCC3)n2)cc1 [Example 99h, 3-[4-[4-[1-(3-hydroxypropylsulfonyl)cyclobutyl]-6-[(3S)-3-methylmorpholin-4-yl]pyrimidin-2-yl]phenyl]-1-propylthiourea]
